Results on 35 compounds are retold here after patent US20240316047A1, “INHIBITORS OF RNA HELICASE DHX9 AND USES THEREOF” (ACCENT THERAPEUTICS, INC., priority 2022, published 2024).

The first experiment deals with Human recombinant DHX9 protein (Homo sapiens (Human), UniProt Q08211). Put plainly: DHX9 ATPase assay (ADP-Glo). It counts as biochemical.
Chain of Human recombinant DHX9 protein (Q08211 whole entry): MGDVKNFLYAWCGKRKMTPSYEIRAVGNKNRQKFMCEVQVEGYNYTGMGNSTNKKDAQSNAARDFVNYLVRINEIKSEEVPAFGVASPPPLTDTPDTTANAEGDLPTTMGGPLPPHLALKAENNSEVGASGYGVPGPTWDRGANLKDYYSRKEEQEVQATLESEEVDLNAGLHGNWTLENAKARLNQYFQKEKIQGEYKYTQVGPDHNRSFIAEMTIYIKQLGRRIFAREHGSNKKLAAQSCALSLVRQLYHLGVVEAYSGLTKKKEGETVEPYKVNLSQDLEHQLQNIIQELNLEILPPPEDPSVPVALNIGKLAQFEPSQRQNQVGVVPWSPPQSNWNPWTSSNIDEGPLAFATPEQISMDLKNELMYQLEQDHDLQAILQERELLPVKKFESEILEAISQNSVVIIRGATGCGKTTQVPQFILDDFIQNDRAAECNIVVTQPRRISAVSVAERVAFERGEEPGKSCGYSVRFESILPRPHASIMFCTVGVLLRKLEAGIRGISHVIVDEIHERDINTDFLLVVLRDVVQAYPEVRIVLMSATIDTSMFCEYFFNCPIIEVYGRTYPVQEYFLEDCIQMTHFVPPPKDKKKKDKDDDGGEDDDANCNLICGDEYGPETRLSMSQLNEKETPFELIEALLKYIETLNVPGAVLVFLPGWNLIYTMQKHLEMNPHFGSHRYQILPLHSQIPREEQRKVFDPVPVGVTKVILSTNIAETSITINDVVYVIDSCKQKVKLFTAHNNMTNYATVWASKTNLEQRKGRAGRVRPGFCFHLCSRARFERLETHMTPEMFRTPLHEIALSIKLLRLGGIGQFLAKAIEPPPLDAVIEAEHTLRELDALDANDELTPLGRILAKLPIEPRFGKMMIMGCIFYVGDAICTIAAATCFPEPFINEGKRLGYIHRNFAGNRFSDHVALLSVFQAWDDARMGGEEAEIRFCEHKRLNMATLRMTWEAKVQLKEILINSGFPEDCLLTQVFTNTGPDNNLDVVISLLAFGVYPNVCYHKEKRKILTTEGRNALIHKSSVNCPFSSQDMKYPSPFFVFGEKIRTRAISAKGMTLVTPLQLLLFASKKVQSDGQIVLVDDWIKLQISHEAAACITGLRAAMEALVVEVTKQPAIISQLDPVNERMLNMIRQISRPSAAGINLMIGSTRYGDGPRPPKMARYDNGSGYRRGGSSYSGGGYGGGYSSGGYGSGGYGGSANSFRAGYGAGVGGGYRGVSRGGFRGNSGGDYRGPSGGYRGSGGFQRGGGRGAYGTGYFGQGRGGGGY
Settings: not given
Regarding `Cc1cc(C(=O)Nc2cc(Cl)cc(NS(=O)(=O)C(F)F)c2)cn1-c1ccc(N2CCOCC2)cn1` [Example 248], the “DHX9 Biochemical Max Inhibition” value is on record as 70.8%.
Regarding `CCS(=O)(=O)Nc1cc(Cl)cc(NC(=O)c2cc(C)n(-c3ccc(N4CCOCC4)cn3)c2)c1` [Example 249], the “DHX9 Biochemical Max Inhibition” value is on record as 64.1%.
Regarding `CS(=O)(=O)Nc1cc(Cl)cc(NC(=O)c2cnn(C3CC4CCC(C3)O4)c2)c1` (stereo not shown) [Example 250], the “DHX9 Biochemical Max Inhibition” value amounted to 64.6%.
In the case of `CS(=O)(=O)Nc1cc(Cl)cc(NC(=O)c2cnn(-c3ncc(F)cc3CCc3cccc(F)c3)c2)c1` [Example 251], the “DHX9 Biochemical Max Inhibition” value came out at 64.7%.
As to `CS(=O)(=O)Nc1cc(Cl)cc(NC(=O)c2cnn(-c3ncccc3OCc3ncc[nH]3)c2)c1` [Example 252], the “DHX9 Biochemical Max Inhibition” value was determined as 72.1%.
On to `CS(=O)(=O)Nc1cc(Cl)cc(NC(=O)c2cnn(-c3ncccc3OCc3ccn[nH]3)c2)c1` [Example 253], for which the “DHX9 Biochemical Max Inhibition” value was 70%.
For the compound `CS(=O)(=O)Nc1cc(Cl)cc(NC(=O)c2cnn(-c3ncccc3OCc3c[nH]cn3)c2)c1` [Example 254], the “DHX9 Biochemical Max Inhibition” value is 64.1%.
Regarding `Cc1cccc(OCc2cccc(F)c2)c1-n1cc(C(=O)Nc2cc(Cl)cc(NS(C)(=O)=O)c2)cn1` [Example 255], the “DHX9 Biochemical Max Inhibition” value worked out at 75.8%.
The same measure, in the same setting: for `CS(=O)(=O)Nc1cc(Cl)cc(NC(=O)c2cnn(-c3ccccc3-c3cncc(F)c3)c2)c1` [Example 257] the value was 66.5%.
For the compound `CS(=O)(=O)Nc1cc(Cl)cc(NC(=O)c2cnn(-c3ncc(N4CC5(COC5)C4)cc3OCc3cc(F)cc(F)c3)c2)c1` [Example 258], the “DHX9 Biochemical Max Inhibition” value is 72.9%.
Take `Cc1cnc(-n2cc(C(=O)Nc3cc(Cl)cc(NS(C)(=O)=O)c3)cn2)c(OCc2cnco2)c1` [Example 261]: the “DHX9 Biochemical Max Inhibition” value was determined as 71%.
With `CS(=O)(=O)Nc1cc(Cl)cc(NC(=O)c2cnn(-c3ncccc3COc3cncc(F)c3)c2)c1` [Example 262], the “DHX9 Biochemical Max Inhibition” value came out at 66.5%.
Turning to `CS(=O)(=O)Nc1cc(Cl)cc(NC(=O)c2cnn(-c3ccccc3Oc3ncccn3)c2)c1` [Example 263], the “DHX9 Biochemical Max Inhibition” value worked out at 63.8%.
As to `CS(=O)(=O)Nc1cc(Cl)cc(NC(=O)c2cnn(-c3ccccc3Oc3cccnc3)c2)c1` [Example 264], the “DHX9 Biochemical Max Inhibition” value was determined as 56.7%.
As for `CS(=O)(=O)Nc1cc(Cl)cc(NC(=O)c2cnn(-c3ccccc3Oc3cccc(F)c3)c2)c1` [Example 265], the “DHX9 Biochemical Max Inhibition” value is recorded as 51.8%.
On to `CN1CCC(c2ccc(-n3cc(C(=O)Nc4cc(Cl)cc(NS(C)(=O)=O)c4)cn3)nc2)CC1=O` (stereo not shown) [Example 266], for which the “DHX9 Biochemical Max Inhibition” value is listed as 64.4%.
On to `CS(=O)(=O)Nc1cc(Cl)cc(NC(=O)c2cc(C(F)(F)F)n(-c3ccc(F)cn3)c2)c1` [Example 267], for which the “DHX9 Biochemical Max Inhibition” value stood at 66.4%.
Consider `Cn1cc(C(=O)Nc2cc(Cl)cc(NS(C)(=O)=O)c2)cc1-c1ncc(F)cc1OCc1cnco1` [Example 268], for which the “DHX9 Biochemical Max Inhibition” value is given as 73.1%.
In the case of `Cc1cc(C(=O)Nc2cc(Cl)cc(NS(C)(=O)=O)c2)cn1-c1ccc(N(C)C2CCOC2)cn1` (stereo not shown) [Example 269], the “DHX9 Biochemical Max Inhibition” value turned out to be 76.9%.
As to `Cc1cc(C(=O)Nc2cc(Cl)cc(NS(C)(=O)=O)c2)cn1-c1ccc(N2CCCC2)cn1` [Example 270], the “DHX9 Biochemical Max Inhibition” value came out at 74.1%.
As to `CS(=O)(=O)Nc1cc(Cl)cc(NC(=O)c2cc(C(F)(F)F)n(-c3ccc(N4CCOCC4)cn3)c2)c1` [Example 271], the “DHX9 Biochemical Max Inhibition” value turned out to be 66.1%.
With `Cc1cc(C(=O)Nc2cc(Cl)cc(NS(C)(=O)=O)c2)cn1-c1ccc(N2CCOC(C)(C)C2)cn1` [Example 272], the “DHX9 Biochemical Max Inhibition” value is on record as 71.6%.
Still for that read-out and setting: for `Cn1cc(C(=O)Nc2cc(Cl)cc(NS(C)(=O)=O)c2)cc1-c1ccc(N2CCOCC2)cn1` [Example 273] the value was 71.4%.
`CCn1cc(C(=O)Nc2cc(Cl)cc(NS(C)(=O)=O)c2)cc1-c1ccc(N2CCOCC2)cn1` [Example 274]: the “DHX9 Biochemical Max Inhibition” value is recorded as 72.1%.
For the compound `CS(=O)(=O)Nc1cc(Cl)cc(NC(=O)c2cc(-c3ccc(N4CCOCC4)cn3)n(CC(F)(F)F)c2)c1` [Example 275], the “DHX9 Biochemical Max Inhibition” value is reported as 75.1%.
`Cc1cc(C(=O)Nc2cc(Cl)cc(NS(C)(=O)=O)c2)cn1-c1ccc(N2CC3(COC3)C2)cn1` [Example 276]: the “DHX9 Biochemical Max Inhibition” value came to 73.8%.
For `Cn1cc(C(=O)Nc2cc(Cl)cc(NS(C)(=O)=O)c2)cc1-c1ccc(N2CC3(COC3)C2)cn1` [Example 277], the “DHX9 Biochemical Max Inhibition” value was 72.5%.
As for `CS(=O)(=O)Nc1cc(Cl)cc(NC(=O)c2cc(-c3ccc(N4CC5(COC5)C4)cn3)n(CC(F)(F)F)c2)c1` [Example 278], the “DHX9 Biochemical Max Inhibition” value was determined as 74.1%.
Still for that read-out and setting: for `Cn1cc(C(=O)Nc2cc(Cl)cc(NS(C)(=O)=O)c2)cc1-c1ncccc1OCc1nccs1` [Example 279] the value was 73.2%; for `Cc1cc(C(=O)Nc2cc(Cl)cc(NS(C)(=O)=O)c2)cn1-c1ncccc1OCc1nccs1` [Example 280], 76.3%; for `Cc1cc(C(=O)Nc2cc(Cl)cc(NS(C)(=O)=O)c2)cn1-c1ncccc1O` [Example 281], 75.7%.
Consider `Cc1cc(C(=O)Nc2cc(Cl)cc(NS(C)(=O)=O)c2)cn1C1CCCC1` [Example 282], for which the “DHX9 Biochemical Max Inhibition” value came to 72.4%.
Consider `Cc1cc(C(=O)Nc2cc(Cl)cc(NS(C)(=O)=O)c2)cn1-c1ccc(N2CCN(C(=O)C(C)C)CC2)cn1` [Example 283], for which the “DHX9 Biochemical Max Inhibition” value is recorded as 78%.
With `Cc1cc(C(=O)Nc2cc(Cl)cc(NS(C)(=O)=O)c2)cn1-c1ccc(N2CCN(C(=O)N(C)C)CC2)cn1` [Example 284], the “DHX9 Biochemical Max Inhibition” value worked out at 79.6%.
Take `Cc1cc(C(=O)Nc2cc(Cl)cc(NS(C)(=O)=O)c2)cn1-c1ccc(N2CCS(=O)(=O)CC2)cn1` [Example 285]: the “DHX9 Biochemical Max Inhibition” value was found to be 70.6%.

Still in this experiment, the particulars now being: read-out: DHX9 Biochemical Inflection Point.
Regarding `Cc1cc(C(=O)Nc2cc(Cl)cc(NS(=O)(=O)C(F)F)c2)cn1-c1ccc(N2CCOCC2)cn1` [Example 248], the IC50 came to 185 nM.
Same read-out and setting: for `CCS(=O)(=O)Nc1cc(Cl)cc(NC(=O)c2cc(C)n(-c3ccc(N4CCOCC4)cn3)c2)c1` [Example 249] the value was 2.8 nM; for `CS(=O)(=O)Nc1cc(Cl)cc(NC(=O)c2cnn(C3CC4CCC(C3)O4)c2)c1` (stereo not shown) [Example 250], 185 nM.
In the case of `CS(=O)(=O)Nc1cc(Cl)cc(NC(=O)c2cnn(-c3ncc(F)cc3CCc3cccc(F)c3)c2)c1` [Example 251], the IC50 is 5200 nM.
Consider `CS(=O)(=O)Nc1cc(Cl)cc(NC(=O)c2cnn(-c3ncccc3OCc3ncc[nH]3)c2)c1` [Example 252], for which the IC50 was 48.9 nM.
As for `CS(=O)(=O)Nc1cc(Cl)cc(NC(=O)c2cnn(-c3ncccc3OCc3ccn[nH]3)c2)c1` [Example 253], the IC50 was 110 nM.
Same read-out and setting: for `CS(=O)(=O)Nc1cc(Cl)cc(NC(=O)c2cnn(-c3ncccc3OCc3c[nH]cn3)c2)c1` [Example 254] the value was 59.5 nM.
Turning to `Cc1cccc(OCc2cccc(F)c2)c1-n1cc(C(=O)Nc2cc(Cl)cc(NS(C)(=O)=O)c2)cn1` [Example 255], the IC50 was found to be 72.4 nM.
As to `CS(=O)(=O)Nc1cc(Cl)cc(NC(=O)c2cnn(-c3ccccc3-c3cncc(F)c3)c2)c1` [Example 257], the IC50 is 207 nM.
Take `CS(=O)(=O)Nc1cc(Cl)cc(NC(=O)c2cnn(-c3ncc(N4CC5(COC5)C4)cc3OCc3cc(F)cc(F)c3)c2)c1` [Example 258]: the IC50 was 4.7 nM.
For `Cc1cnc(-n2cc(C(=O)Nc3cc(Cl)cc(NS(C)(=O)=O)c3)cn2)c(OCc2cnco2)c1` [Example 261], the IC50 was 47.5 nM.
For the compound `CS(=O)(=O)Nc1cc(Cl)cc(NC(=O)c2cnn(-c3ncccc3COc3cncc(F)c3)c2)c1` [Example 262], the IC50 was determined as 120 nM.
On to `CS(=O)(=O)Nc1cc(Cl)cc(NC(=O)c2cnn(-c3ccccc3Oc3ncccn3)c2)c1` [Example 263], for which the IC50 worked out at 170 nM.
On to `CS(=O)(=O)Nc1cc(Cl)cc(NC(=O)c2cnn(-c3ccccc3Oc3cccnc3)c2)c1` [Example 264], for which the IC50 was determined as 119 nM.
As for `CS(=O)(=O)Nc1cc(Cl)cc(NC(=O)c2cnn(-c3ccccc3Oc3cccc(F)c3)c2)c1` [Example 265], the IC50 came out at 8050 nM.
With `CN1CCC(c2ccc(-n3cc(C(=O)Nc4cc(Cl)cc(NS(C)(=O)=O)c4)cn3)nc2)CC1=O` (stereo not shown) [Example 266], the IC50 was 13.1 nM.
Consider `CS(=O)(=O)Nc1cc(Cl)cc(NC(=O)c2cc(C(F)(F)F)n(-c3ccc(F)cn3)c2)c1` [Example 267], for which the IC50 is 248 nM.
Take `Cn1cc(C(=O)Nc2cc(Cl)cc(NS(C)(=O)=O)c2)cc1-c1ncc(F)cc1OCc1cnco1` [Example 268]: the IC50 was determined as 9.4 nM.
For `Cc1cc(C(=O)Nc2cc(Cl)cc(NS(C)(=O)=O)c2)cn1-c1ccc(N(C)C2CCOC2)cn1` (stereo not shown) [Example 269], the IC50 worked out at 4.4 nM.
For the compound `Cc1cc(C(=O)Nc2cc(Cl)cc(NS(C)(=O)=O)c2)cn1-c1ccc(N2CCCC2)cn1` [Example 270], the IC50 came out at 9.7 nM.
Still for that read-out and setting: for `CS(=O)(=O)Nc1cc(Cl)cc(NC(=O)c2cc(C(F)(F)F)n(-c3ccc(N4CCOCC4)cn3)c2)c1` [Example 271] the value was 86.5 nM; for `Cc1cc(C(=O)Nc2cc(Cl)cc(NS(C)(=O)=O)c2)cn1-c1ccc(N2CCOC(C)(C)C2)cn1` [Example 272], 5.4 nM; for `Cn1cc(C(=O)Nc2cc(Cl)cc(NS(C)(=O)=O)c2)cc1-c1ccc(N2CCOCC2)cn1` [Example 273], 6.5 nM.
For the compound `CCn1cc(C(=O)Nc2cc(Cl)cc(NS(C)(=O)=O)c2)cc1-c1ccc(N2CCOCC2)cn1` [Example 274], the IC50 came out at 32.2 nM.
On the same count and under the same terms, for `CS(=O)(=O)Nc1cc(Cl)cc(NC(=O)c2cc(-c3ccc(N4CCOCC4)cn3)n(CC(F)(F)F)c2)c1` [Example 275] the value was 76.2 nM; for `Cc1cc(C(=O)Nc2cc(Cl)cc(NS(C)(=O)=O)c2)cn1-c1ccc(N2CC3(COC3)C2)cn1` [Example 276], 4.7 nM; for `Cn1cc(C(=O)Nc2cc(Cl)cc(NS(C)(=O)=O)c2)cc1-c1ccc(N2CC3(COC3)C2)cn1` [Example 277], 4.3 nM.
For the compound `CS(=O)(=O)Nc1cc(Cl)cc(NC(=O)c2cc(-c3ccc(N4CC5(COC5)C4)cn3)n(CC(F)(F)F)c2)c1` [Example 278], the IC50 stood at 44.2 nM.
For the compound `Cn1cc(C(=O)Nc2cc(Cl)cc(NS(C)(=O)=O)c2)cc1-c1ncccc1OCc1nccs1` [Example 279], the IC50 came to 4 nM.
Regarding `Cc1cc(C(=O)Nc2cc(Cl)cc(NS(C)(=O)=O)c2)cn1-c1ncccc1OCc1nccs1` [Example 280], the IC50 was determined as 326 nM.
Consider `Cc1cc(C(=O)Nc2cc(Cl)cc(NS(C)(=O)=O)c2)cn1-c1ncccc1O` [Example 281], for which the IC50 came to 28 nM.
As to `Cc1cc(C(=O)Nc2cc(Cl)cc(NS(C)(=O)=O)c2)cn1C1CCCC1` [Example 282], the IC50 came to 96.4 nM.
Regarding `Cc1cc(C(=O)Nc2cc(Cl)cc(NS(C)(=O)=O)c2)cn1-c1ccc(N2CCN(C(=O)C(C)C)CC2)cn1` [Example 283], the IC50 was 29.2 nM.
For the compound `Cc1cc(C(=O)Nc2cc(Cl)cc(NS(C)(=O)=O)c2)cn1-c1ccc(N2CCN(C(=O)N(C)C)CC2)cn1` [Example 284], the IC50 is 4.1 nM.
Take `Cc1cc(C(=O)Nc2cc(Cl)cc(NS(C)(=O)=O)c2)cn1-c1ccc(N2CCS(=O)(=O)CC2)cn1` [Example 285]: the IC50 came to 5.4 nM.
